Calls of active or inactive are those of the source.
Key:
[1] = molecular target: DNA dC->dU-editing enzyme APOBEC-3A (Homo sapiens, UniProt P31941); experiment: SAR analysis of small molecule inhibitors of APOBEC3A DNA Deaminase via a fluorescence-based single-stranded DNA deaminase assay.; assay type: functional; details: read-out: IC50_Mean
[2] = molecular target: DNA dC->dU-editing enzyme APOBEC-3G (Homo sapiens, UniProt Q9HC16); experiment: inhibition of APOBEC3G ssDNA deamination – biochemical, fluorescence, single-stranded DNA substrate, SAR follow-up (AID 602136); assay type: functional; details: read-out: IC50_Mean
[3] = viability loss in THP-1 monocytes – THP-1 cells, cytotoxicity control for Vif-APOBEC3G degradation inhibitor project, dose response (AID 1117359); assay type: functional; details: THP-1
[4] = activation of miR-122 Renilla sensor silencing – cell-based, Huh7 psiCHECK-miR122, Renilla luciferase, cherry-picked, dose response (AID 651956); assay type: functional;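 also: huh7 hepatoma cells stably carrying a psiCHECK-2 miR-122 sensor plasmid; renilla luciferase signal reporting endogenous miR-122 activity after 48 h compound exposure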
[5] = molecular target: T1, Insulin-degrading enzyme (Homo sapiens, UniProt P14735); experiment: recombinant IDE activation, cell-free – biochemical, fluorescence polarization, counter-screen for IDE activator project, dose response (AID 588681)
T1 sequence (P14735 whole entry): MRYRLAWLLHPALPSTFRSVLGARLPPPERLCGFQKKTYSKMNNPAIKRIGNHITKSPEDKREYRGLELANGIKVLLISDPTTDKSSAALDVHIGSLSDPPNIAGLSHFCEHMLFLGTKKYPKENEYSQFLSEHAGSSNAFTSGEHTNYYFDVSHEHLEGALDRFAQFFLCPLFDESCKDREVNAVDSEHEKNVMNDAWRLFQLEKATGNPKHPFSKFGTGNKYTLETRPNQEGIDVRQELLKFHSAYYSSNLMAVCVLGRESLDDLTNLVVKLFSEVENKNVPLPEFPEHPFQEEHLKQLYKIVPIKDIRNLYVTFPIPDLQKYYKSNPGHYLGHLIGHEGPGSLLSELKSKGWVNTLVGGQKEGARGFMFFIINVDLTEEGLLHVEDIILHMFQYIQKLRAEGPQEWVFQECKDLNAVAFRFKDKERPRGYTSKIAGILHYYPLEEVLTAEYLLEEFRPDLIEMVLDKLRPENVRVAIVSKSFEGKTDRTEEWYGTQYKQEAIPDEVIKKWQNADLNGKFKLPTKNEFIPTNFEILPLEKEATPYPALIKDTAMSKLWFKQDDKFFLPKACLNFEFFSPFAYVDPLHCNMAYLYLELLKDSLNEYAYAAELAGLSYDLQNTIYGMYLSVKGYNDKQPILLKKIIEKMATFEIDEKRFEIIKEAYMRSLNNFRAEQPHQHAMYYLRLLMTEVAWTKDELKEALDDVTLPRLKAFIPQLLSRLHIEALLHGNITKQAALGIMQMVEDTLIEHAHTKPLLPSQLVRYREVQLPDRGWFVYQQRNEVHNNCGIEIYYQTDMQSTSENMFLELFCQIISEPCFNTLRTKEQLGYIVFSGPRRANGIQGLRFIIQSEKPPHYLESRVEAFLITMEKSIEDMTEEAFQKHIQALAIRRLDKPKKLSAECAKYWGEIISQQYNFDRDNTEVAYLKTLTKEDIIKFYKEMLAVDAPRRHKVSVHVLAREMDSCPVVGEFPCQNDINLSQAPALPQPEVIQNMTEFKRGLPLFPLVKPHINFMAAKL

[6] = molecular target: T2, Bcl-2-related protein A1 (Mus musculus, UniProt Q07440); assay type: functional;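 also: confirmatory dose–response counterscreen on Bfl-1, used to check hits from a UBC13 polyubiquitin inhibitor campaign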
T2 sequence (Q07440 whole entry): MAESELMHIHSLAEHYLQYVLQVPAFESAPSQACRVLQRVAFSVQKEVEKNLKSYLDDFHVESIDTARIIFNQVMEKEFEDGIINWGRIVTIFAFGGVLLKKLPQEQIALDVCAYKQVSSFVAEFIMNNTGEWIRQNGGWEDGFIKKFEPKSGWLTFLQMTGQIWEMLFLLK

[7] = molecular target: T3, Coagulation factor XII (Homo sapiens, UniProt P00748); assay type: functional;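 also: activated factor XIIa alpha cleaving a fluorogenic AMC peptide substrate; inhibitor potency from loss of enzyme activity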
T3 sequence (P00748 whole entry): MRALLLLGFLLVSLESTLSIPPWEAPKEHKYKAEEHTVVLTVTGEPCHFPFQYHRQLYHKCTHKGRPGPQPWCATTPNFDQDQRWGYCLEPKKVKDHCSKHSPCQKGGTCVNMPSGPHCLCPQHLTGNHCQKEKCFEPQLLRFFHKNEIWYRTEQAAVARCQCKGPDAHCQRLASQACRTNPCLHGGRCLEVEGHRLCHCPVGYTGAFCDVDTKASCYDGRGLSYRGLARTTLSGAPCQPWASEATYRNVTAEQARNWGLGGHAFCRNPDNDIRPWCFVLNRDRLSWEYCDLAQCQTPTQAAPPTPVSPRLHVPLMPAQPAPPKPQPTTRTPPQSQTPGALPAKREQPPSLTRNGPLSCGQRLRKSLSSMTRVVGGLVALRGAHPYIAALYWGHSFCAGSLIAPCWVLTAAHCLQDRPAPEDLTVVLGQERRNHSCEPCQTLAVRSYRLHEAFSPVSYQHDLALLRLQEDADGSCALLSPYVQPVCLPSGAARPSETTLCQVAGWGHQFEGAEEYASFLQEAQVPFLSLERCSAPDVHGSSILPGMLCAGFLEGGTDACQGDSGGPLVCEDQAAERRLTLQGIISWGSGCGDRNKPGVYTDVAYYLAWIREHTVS

[8] = microbe, parasite or virus in culture; assay type: functional; details: Mycobacterium tuberculosis
[9] = molecular target: T1, Insulin-degrading enzyme; experiment: cellular IDE activation of Abeta substrate cleavage – fluorescence polarization, HEK cells, dose response (AID 588439); assay type: functional, cell-based
[10] = general mammalian cell viability loss – activator set, cherry-pick, cytotoxicity control for miR-122 modulator project, dose response (AID 720690); assay type: functional, cell-based;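 also: HEK293T human cells scored for general mammalian cytotoxicity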
[11] = molecular target: T4, DNA repair protein RAD52 homolog (Homo sapiens, UniProt P43351); assay type: functional, biochemical
T4 sequence (P43351 whole entry): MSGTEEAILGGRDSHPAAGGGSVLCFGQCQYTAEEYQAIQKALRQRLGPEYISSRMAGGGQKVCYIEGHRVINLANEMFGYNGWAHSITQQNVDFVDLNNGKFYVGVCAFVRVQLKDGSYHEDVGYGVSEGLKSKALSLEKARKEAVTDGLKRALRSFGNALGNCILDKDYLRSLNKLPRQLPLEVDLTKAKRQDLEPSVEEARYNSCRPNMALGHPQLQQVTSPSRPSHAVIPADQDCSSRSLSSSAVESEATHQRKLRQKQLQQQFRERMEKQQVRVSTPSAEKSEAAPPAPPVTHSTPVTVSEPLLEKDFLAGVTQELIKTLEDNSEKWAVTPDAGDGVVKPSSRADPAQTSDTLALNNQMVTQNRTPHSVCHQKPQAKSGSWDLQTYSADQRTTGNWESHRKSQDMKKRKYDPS

[12] = test system: HEK293; experiment: optical interference in Abeta FP readout, dose response, artefact control for IDE activator project, biochemical, fluorescence polarization (AID 588442); assay type: functional, cell-based; details: Homo sapiens
[13] = molecular target: T5, Ubiquitin-conjugating enzyme E2 N (Homo sapiens, UniProt P61088); assay type: functional
T5 sequence (P61088 whole entry): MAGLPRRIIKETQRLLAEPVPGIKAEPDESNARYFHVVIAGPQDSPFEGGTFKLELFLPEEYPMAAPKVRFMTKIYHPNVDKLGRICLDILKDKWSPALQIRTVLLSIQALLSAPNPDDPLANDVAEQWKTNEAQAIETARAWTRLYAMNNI

[14] = molecular target: T5, Ubiquitin-conjugating enzyme E2 N; assay type: functional; remark: listed apart in the source
[15] = test system: HEK293; experiment: membrane integrity loss in HEK cells – cell-based, fluorescence, cytotoxicity control for IDE activator project, dose response (AID 588440); assay type: functional; details: Homo sapiens;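 also: cytotoxicity by LDH release measuring loss of membrane integrity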
[16] = molecular target: Activin receptor type-1 (Homo sapiens, UniProt Q04771); experiment: Navigating the Kinome. Panel member name: ACVR1; assay type: functional
[17] = molecular target: T6, Apoptotic protease-activating factor 1 (Homo sapiens, UniProt O14727); assay type: functional
T6 sequence (O14727 whole entry): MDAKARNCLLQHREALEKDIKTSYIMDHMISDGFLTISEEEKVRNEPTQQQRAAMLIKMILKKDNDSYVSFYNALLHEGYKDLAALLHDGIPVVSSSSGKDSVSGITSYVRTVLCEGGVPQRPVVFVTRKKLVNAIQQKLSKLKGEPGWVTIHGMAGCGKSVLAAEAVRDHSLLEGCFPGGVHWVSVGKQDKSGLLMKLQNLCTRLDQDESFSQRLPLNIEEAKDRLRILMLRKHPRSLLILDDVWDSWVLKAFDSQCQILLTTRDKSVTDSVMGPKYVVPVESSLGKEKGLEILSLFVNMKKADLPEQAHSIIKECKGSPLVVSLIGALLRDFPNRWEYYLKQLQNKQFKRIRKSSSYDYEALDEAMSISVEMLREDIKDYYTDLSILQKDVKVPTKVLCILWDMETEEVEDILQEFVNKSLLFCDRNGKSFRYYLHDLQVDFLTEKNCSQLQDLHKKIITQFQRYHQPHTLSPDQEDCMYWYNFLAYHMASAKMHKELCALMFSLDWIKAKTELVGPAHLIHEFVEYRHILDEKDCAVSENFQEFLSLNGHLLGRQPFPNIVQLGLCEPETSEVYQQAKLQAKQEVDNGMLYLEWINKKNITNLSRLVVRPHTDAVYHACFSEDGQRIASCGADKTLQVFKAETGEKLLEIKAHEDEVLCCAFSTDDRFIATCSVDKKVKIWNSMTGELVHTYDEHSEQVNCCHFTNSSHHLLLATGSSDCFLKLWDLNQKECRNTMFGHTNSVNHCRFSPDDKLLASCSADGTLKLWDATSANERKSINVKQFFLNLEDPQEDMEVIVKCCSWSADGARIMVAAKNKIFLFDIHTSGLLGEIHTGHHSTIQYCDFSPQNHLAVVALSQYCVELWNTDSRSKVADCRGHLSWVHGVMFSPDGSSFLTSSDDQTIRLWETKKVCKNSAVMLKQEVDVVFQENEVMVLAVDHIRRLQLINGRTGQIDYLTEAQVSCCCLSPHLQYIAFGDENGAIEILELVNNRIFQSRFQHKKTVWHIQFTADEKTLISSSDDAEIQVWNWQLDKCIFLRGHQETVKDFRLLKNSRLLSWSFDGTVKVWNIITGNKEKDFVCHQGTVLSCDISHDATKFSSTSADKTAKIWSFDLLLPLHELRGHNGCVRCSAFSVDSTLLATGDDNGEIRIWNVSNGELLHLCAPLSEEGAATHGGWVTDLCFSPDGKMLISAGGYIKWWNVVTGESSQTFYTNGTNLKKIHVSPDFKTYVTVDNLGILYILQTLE

[18] = test system: Jurkat; experiment: blockers of NF-kB activation in T cells – Jurkat, luciferase reporter, luminescence, B- and T-cell, dose response (AID 489004); assay type: functional, cell-based; details: Homo sapiens;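 also: NF-kB luciferase reporter Jurkat cells stimulated with PMA plus ionomycin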
[19] = NIH-3T3 fibroblast cytotoxicity, dose response, cytotoxicity control, cell-based, fluorescence, Alamar Blue, secondary assay (AID 2327); assay type: functional;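 also: NIH-3T3 mouse fibroblasts cultured with fluconazole at 8 µg/mL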
[20] = Luminescence Cell-Based Dose Retest to Confirm Inhibitors of Cancer Stem Cells. [Related pubchem assays (depositor defined):AID2717, AID2721]; assay type: functional; details: Homo sapiens
[21] = fluconazole-exposed Candida albicans growth modulators – fluorescence, retest, confirmation (AID 2467); assay type: functional, cell-based
[22] = HEK-293T viability loss, compound-treated – cell-based, uHTS hits, cytotoxicity control for B/T-cell NF-kB inhibitor project, dose response (AID 489019); assay type: functional;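 also: IC50 reflects cytotoxicity as loss of cell viability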
[23] = test system: INS1; experiment: INS-1E survival protection against cytokine death – cell-based, luminescence, retest, dose response (AID 449756); assay type: functional; details: Rattus norvegicus;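 also: cell death triggered by IL-1 beta plus TNF-alpha plus IFN-gamma mixture; protective hits raise ATP signal compared with cytokine alone wells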
[24] = molecular target: Glycogen synthase kinase-3 beta (Homo sapiens, UniProt P49841); assay type: functional;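 also: value comes from a broad kinome profiling panel, with GSK3B as the panel member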
[25] = molecular target: Serine/threonine-protein kinase pim-1 (Homo sapiens, UniProt P11309); assay type: functional
[26] = molecular target: Interleukin-1 receptor-associated kinase 4 (Homo sapiens, UniProt Q9NWZ3); assay type: functional
[27] = molecular target: Mitogen-activated protein kinase kinase kinase kinase 4 (Homo sapiens, UniProt O95819); assay type: functional
[28] = molecular target: Cell division cycle 7-related protein kinase (Homo sapiens, UniProt O00311); assay type: functional;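 also: value obtained from a kinome-wide kinase panel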
[29] = molecular target: MAP kinase-interacting serine/threonine-protein kinase 2 (Homo sapiens, UniProt Q9HBH9); assay type: functional
[30] = molecular target: cAMP-dependent protein kinase catalytic subunit alpha (Homo sapiens, UniProt P17612); assay type: functional

Chain of DNA dC->dU-editing enzyme APOBEC-3G (Q9HC16 whole entry): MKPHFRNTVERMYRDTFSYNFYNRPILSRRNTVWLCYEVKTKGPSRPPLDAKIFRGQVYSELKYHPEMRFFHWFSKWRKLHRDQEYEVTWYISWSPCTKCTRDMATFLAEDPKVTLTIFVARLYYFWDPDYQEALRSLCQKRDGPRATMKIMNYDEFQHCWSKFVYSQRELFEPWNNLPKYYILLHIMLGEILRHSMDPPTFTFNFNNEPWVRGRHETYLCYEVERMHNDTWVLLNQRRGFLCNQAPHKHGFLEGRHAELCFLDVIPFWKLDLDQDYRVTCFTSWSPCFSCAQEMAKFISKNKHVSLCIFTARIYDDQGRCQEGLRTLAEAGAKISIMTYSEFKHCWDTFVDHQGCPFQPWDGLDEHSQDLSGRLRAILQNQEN
Chain of DNA dC->dU-editing enzyme APOBEC-3A (P31941 whole entry): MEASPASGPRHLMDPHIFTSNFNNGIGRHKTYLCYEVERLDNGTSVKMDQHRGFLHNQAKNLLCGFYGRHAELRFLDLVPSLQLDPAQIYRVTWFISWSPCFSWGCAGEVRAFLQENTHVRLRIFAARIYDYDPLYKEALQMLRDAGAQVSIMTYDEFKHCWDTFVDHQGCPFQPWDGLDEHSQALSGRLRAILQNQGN
Chain of Interleukin-1 receptor-associated kinase 4 (Q9NWZ3 whole entry): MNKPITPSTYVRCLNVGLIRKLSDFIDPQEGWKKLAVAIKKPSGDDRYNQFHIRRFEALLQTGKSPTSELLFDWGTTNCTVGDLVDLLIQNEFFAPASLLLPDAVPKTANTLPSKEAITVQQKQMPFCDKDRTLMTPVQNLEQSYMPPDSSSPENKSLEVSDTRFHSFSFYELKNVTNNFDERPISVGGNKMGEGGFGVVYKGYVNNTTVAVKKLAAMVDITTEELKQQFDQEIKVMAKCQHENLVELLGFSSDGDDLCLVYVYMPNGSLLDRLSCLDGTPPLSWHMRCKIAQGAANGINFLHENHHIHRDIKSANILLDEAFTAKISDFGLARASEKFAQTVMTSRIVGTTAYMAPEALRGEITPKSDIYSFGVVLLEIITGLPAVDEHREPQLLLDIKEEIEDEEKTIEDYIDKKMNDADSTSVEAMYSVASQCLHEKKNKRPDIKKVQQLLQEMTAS
Chain of Mitogen-activated protein kinase kinase kinase kinase 4 (O95819 whole entry): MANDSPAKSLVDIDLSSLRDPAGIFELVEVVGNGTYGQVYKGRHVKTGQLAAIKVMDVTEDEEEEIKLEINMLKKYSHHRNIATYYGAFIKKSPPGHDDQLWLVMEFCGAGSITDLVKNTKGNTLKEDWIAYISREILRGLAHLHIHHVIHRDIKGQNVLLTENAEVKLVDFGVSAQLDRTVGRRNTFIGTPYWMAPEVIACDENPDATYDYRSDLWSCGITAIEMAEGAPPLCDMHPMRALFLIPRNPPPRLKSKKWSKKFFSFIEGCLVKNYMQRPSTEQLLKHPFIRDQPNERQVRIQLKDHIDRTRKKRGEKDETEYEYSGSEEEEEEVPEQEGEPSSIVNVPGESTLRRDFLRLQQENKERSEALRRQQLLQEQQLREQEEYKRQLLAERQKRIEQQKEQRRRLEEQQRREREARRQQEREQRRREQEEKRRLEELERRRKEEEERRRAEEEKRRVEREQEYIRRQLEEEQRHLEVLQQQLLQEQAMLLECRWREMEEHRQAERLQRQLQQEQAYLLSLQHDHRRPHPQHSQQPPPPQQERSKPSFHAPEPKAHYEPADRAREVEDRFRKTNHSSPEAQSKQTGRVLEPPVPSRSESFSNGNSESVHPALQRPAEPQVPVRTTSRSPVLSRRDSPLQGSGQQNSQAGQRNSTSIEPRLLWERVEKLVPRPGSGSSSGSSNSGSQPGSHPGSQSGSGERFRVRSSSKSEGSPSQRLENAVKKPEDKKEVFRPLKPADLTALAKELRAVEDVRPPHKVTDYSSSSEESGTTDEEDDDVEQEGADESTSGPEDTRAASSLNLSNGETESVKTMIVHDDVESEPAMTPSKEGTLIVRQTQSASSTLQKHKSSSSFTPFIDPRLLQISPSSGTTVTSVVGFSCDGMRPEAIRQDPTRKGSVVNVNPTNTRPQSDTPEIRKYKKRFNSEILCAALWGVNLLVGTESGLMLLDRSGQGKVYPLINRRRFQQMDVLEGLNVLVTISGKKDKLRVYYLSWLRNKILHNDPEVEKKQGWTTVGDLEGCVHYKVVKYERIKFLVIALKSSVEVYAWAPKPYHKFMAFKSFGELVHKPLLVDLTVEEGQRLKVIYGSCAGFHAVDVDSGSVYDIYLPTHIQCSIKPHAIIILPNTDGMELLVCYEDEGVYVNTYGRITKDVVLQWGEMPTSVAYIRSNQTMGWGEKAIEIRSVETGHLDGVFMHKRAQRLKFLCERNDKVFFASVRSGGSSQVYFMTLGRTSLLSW
Chain of MAP kinase-interacting serine/threonine-protein kinase 2 (Q9HBH9 whole entry): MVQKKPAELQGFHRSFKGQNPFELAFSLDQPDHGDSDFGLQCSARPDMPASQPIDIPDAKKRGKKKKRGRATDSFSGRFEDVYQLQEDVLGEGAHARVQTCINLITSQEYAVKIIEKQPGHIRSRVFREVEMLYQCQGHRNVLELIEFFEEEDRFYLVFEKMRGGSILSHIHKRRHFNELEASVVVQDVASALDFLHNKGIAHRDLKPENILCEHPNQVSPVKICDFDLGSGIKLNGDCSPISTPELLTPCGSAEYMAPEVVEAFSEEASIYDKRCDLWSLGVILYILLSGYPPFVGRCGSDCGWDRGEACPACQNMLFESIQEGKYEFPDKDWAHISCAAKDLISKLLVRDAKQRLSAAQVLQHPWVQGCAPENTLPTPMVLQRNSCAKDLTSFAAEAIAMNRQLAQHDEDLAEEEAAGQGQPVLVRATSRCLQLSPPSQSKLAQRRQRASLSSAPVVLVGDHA
Chain of Activin receptor type-1 (Q04771 whole entry): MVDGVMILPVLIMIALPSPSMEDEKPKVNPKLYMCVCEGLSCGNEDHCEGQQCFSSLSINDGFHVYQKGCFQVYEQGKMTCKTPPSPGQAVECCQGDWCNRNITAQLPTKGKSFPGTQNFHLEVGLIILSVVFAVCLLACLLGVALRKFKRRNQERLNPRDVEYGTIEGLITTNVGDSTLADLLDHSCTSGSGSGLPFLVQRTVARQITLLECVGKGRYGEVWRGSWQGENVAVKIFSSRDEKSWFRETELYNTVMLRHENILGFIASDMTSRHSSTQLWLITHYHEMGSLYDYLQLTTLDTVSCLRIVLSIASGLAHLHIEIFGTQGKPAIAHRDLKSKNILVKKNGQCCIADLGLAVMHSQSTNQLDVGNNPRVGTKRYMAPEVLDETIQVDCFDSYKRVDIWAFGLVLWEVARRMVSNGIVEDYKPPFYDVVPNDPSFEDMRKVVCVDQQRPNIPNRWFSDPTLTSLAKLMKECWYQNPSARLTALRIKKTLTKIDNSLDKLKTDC
Chain of Serine/threonine-protein kinase pim-1 (P11309 whole entry): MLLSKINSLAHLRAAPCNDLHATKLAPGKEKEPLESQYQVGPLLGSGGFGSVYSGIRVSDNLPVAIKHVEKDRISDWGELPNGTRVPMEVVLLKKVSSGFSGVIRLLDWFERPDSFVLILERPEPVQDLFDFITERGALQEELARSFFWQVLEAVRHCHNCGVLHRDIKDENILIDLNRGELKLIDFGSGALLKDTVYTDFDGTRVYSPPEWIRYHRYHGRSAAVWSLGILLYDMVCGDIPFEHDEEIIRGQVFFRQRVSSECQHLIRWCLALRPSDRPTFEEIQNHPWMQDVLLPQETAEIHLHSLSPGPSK
Chain of Glycogen synthase kinase-3 beta (P49841 whole entry): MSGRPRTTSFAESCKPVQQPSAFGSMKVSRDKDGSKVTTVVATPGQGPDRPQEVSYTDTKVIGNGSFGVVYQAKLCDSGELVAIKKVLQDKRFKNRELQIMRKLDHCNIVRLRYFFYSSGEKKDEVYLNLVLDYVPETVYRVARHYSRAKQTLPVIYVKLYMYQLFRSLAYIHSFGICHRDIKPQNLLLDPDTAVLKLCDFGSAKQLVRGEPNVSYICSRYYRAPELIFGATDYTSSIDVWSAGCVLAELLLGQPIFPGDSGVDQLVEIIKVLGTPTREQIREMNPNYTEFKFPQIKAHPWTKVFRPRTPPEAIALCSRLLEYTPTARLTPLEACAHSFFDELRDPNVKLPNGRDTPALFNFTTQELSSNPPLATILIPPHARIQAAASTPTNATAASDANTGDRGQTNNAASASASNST
Chain of Cell division cycle 7-related protein kinase (O00311 whole entry): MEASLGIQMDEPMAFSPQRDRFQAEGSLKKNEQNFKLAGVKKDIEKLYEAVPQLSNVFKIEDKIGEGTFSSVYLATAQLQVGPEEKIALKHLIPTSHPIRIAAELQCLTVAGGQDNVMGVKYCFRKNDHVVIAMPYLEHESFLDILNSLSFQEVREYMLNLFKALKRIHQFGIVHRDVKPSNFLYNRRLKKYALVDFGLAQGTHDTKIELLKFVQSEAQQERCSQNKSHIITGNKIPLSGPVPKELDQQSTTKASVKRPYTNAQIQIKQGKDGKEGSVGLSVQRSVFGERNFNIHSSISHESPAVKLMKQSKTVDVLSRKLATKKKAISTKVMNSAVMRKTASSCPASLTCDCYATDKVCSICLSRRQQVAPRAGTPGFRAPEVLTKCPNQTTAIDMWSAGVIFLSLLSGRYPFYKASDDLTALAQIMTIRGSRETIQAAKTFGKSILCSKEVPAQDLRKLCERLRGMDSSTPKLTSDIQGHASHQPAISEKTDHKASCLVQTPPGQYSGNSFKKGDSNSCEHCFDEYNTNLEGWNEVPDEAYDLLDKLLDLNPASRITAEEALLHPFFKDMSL

CC(C)Cn1c(=O)c2cc(Cl)ccc2n2c(SCc3ccc(Cl)cc3)nnc12
IC50 [1]: > 99 µM (inactive) | IC50 [2]: > 99 µM (inactive)

Cn1c(SCC(N)=O)nnc1-c1sc2cc(Cl)ccc2c1Cl
IC50 [1]: > 99 µM (inactive) | IC50 [2]: > 99 µM (inactive)

CN(C)CCNc1ncnc2c1sc1nc(-c3ccccc3)c3c(c12)CCCC3
CC50 [3]: 31.1 µM (active) | AC50 [4]: 19.4 µM (active) | EC50 [5]: > 54.7 µM (inactive) | IC50 [6]: > 20 µM (inactive) | IC50 [7]: > 50 µM (inactive) | CC50 [8]: 7.38 µM (active) | EC50 [9]: 21.7 µM (inactive) | AC50 [10]: 16.2 µM (active) | AC50 [11]: 6.93 µM (active) | EC50 [12]: > 54.7 µM (inactive) | IC50 [13]: 13 µM (active) | IC50 [14]: 7.72 µM (active) | IC50 [15]: 10.4 µM (inactive)

Cn1c(=O)n(-c2ccc(C(C)(C)C#N)cc2)c2c3cc(-c4cnc5ccccc5c4)ccc3ncc21 [DACTOLISIB]
Ki [16]: 1.26 µM (active)

CC(=O)Nc1ccc(NC(=O)COC(=O)c2[nH]nc3ccccc23)cc1
EC50 [5]: > 54.7 µM (inactive) | EC50 [9]: > 54.7 µM (inactive) | EC50 [12]: > 54.7 µM (inactive) | IC50 [15]: > 89.2 µM (inactive)

CCCCCc1ccc(OCCCC[n+]2cccc(C)c2)c(CCCCC)c1
IC50 [17]: 28.5 µM (active) | IC50 [18]: 4.68 µM (active) | EC50 [19]: > 150 µM (inactive) | AC50 [11]: 15.1 µM (active) | AC50 [20]: 0.694 µM (active) | IC50 [13]: > 20 µM (inactive) | EC50 [21]: 0.755 µM (active) | IC50 [22]: 68.8 µM (inactive) | AC50 [23]: 1.64 µM (active)

CCCCNc1cc(-c2c[nH]c3ncccc23)ncn1
Ki [24]: 0.0501 µM (active) | Ki [25]: 0.158 µM (active) | Ki [26]: 1 µM (active) | Ki [27]: 0.0158 µM (active) | Ki [28]: 0.00631 µM (active) | Ki [29]: 0.0631 µM (active) | Ki [30]: 1 µM (active)
